# Experiments:
# IL-6 = test: LPS/cytokine assay (mouse inflammation assay), IL-6; type: in vivo, CD-1 male mice
# Experimental: Table 2b also includes additional biological data of compounds described herein. The LPS/cytokine Assay was carried out in CD-1 male mice. The assay measured the level of various cytokines, including IL-6, IL-17, and IL-23, after induction by bacterial liposaccharide (LPS). Compounds were dosed by IP or IV routes of administration at varying times before and after LPS and the cytokine concentrations were measured at varying times, typically 6 hrs, after LPS by standard methods using ELISA kits.
# BIOLOGICAL TESTING: Compounds 10 and 17 from Table 1 were tested in a mouse inflammation assay. Briefly, CD-1 mice were dosed with compound, 12 hrs before injecting mice I.P. with the potent cytokine inducer, bacterial lipopolysaccharide (LPS). The mice were euthanized 6 hrs after the LPS was injected and their serum prepared by standard methods. The concentration of IL-6 in the serum of each experimental animal was measured using an IL-6 ELISA kit from Enzo. The compounds tested were active.
# This LPS/cytokine assay was carried out in healthy mice and measured the level of cytokine IL-6, IL-17, and 23 induction by LPS. Compounds are dosed (either orally (“p.o.”) or intravenously (“i.v.”) at varying times before and after LPS, and the cytokines are measured at varying times after LPS. The effect of the tested compounds (Table 5) on IL-6 release is shown in FIG. 7. The effect of the tested compounds (Table 6) on IL-17 an IL-23 release is shown in FIG. 11 and FIG. 12, respectively.
# [1] = tested on: Db/db mouse aorta segments; test: Vascular reactivity of aorta segments (tensometer); conditions: db/db mice; vs vehicle
# Experimental: (§1) Vascular reactivity: Db/db mouse aorta segments were equilibrated in oxygenated PBS (95% O2 and 5% CO2) at 37° C. Following equilibration, 1 μM phenylephrine was added to each ring for submaximal contraction. After stabilization, Compound 17 was added to the rings and the effect on the muscle tone of the aorta segments was monitored with a tensometer as dose-responses from 10^-8 M to 10^-5 M for acetylcholine (“Ach”) and A23187 (5-(methylamino)-2-({(2R,3R,6S,8S,9R,11R)-3,9,11-trimethyl-8-[(1S)-1-methyl-2-oxo-2-(1H-pyrrol-2-yl)ethyl]-1,7-dioxaspiro[5.5]undec-2-yl}methyl)-1,3-benzoxazole-4-carboxylic). 8-Isoprostane was measured in plasma and heart homogenates by standard Elisa methods.
# db/db mice = test: Insulin and glucose tolerance tests, survival and 8-isoprostane in db/db diabetic mice; type: in vivo
# Experimental: Compound 17 was studied in 6 week intra-gastric insulin and glucose tolerance tests in db/db mice dosed orally with Compound 17 at 10 mg/kg for 6 weeks qd. The male db/db mice were started on study at 6 weeks of age and were given a 60% high fat diet to increase the diabetic phenotype.
# as §1
# [2] = tested on: non-alcoholic steatohepatitis (NASH) in male C57BL/6 mice; test: Non-alcoholic steatohepatitis (NASH) model, Streptozotocin plus 60% kcal fat diet; type: in vivo; conditions: for liver to body weight ratio: disease control 0.066; for decrease of percentage collagen proportion area (CPA), Masson's trichrome staining, liver: vs disease control
# Experimental: Timed pregnant mice (n=44) were selected for the study. The delivered pups were subcutaneously injected on post-natal day 2 with 200 μg of Streptozotocin and were allowed to remain with the mother until they reached the weanling age. After weanling, the male pups were selected and fed with 60% kcal fat diet (Research Diet-D12492) for next 6 weeks. All the animals were observed once daily for clinical signs and twice daily for morbidity and mortality.
# Mice were dosed with vehicle, Compound 17 (at 3 mg/kg or 10 mg/kg) and 10 mg/kg of reference compound (either Obeticholic acid (OCA) or Elafibranor (ELA, GFT505)) once daily before the start of dark cycle (6:00 PM) from day 0 to 21. Animal body weight measurements were made daily for the complete duration of the experiment. Animals were dosed for 21 days (from week 9 to 12) with the test and reference compounds. Blood glucose was estimated before the treatment start, day 11 and on the termination day. Histopathology analysis including the H&E staining, Masson's trichrome staining and the Oil-red-O (ORO) staining was performed for the liver tissues.
# GSNOR enzyme = GSNOR enzyme (Homo sapiens, UniProt P11766); test: GSNOR inhibition assay (rate of NADH consumption, 340 nm absorbance); type: biochemical; conditions: Table 2b; read-out: IC50 Micromolar
# Sequence of GSNOR enzyme (P11766 whole entry): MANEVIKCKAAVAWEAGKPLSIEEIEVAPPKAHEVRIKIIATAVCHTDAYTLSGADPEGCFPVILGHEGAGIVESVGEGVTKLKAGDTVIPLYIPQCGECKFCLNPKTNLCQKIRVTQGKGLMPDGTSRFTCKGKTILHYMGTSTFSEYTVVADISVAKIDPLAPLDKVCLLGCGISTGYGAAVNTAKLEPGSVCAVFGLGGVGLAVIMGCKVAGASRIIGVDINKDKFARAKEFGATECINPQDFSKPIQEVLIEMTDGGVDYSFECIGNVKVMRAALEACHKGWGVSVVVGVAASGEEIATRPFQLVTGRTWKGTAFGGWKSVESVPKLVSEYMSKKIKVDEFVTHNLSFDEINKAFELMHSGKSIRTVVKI
smiles,measurement,setting,value
"NC(=O)CCn1c2ccc(-n3ccnc3)cc2c2ccc(CCC(=O)O)cc21 [Compound 17, 3-(imidazol-1(H)-yl)-7-(2-carboxylethyl)-9(H)-(2-aminocarbonylethyl) carbazole]",LPS/IL6 Lowest tested active,"IL-6; CD-1 male mice, IP or IV, cytokine typically 6 hrs after LPS",0.03 mg/kg
same,IL-6 in serum after LPS (mouse inflammation assay),"IL-6; dosed 12 hrs before LPS I.P., serum 6 hrs after LPS",active
same,vascular reactivity,[1],increased their vascular reactivity
same,insulin and glucose tolerances,"db/db mice; 10 mg/kg orally qd for 6 weeks, 60% high fat diet",statistically significantly reduced insulin and glucose tolerances
same,amount of F2-IsoPs in cardiac tissue (myocardial 8-isoprostane),"db/db mice; db/db mice, vs vehicle",significantly reduces
same,increase of survival in severely debilitated diabetic mice,"db/db mice; db/db mice, vs vehicle",66%
same,ORO (Oil-Red-O) steatosis score relative to disease control,[2]; 3 mg/kg,−28%
same,change of liver to body weight ratio compared with disease control,[2]; 3 mg/kg,−18.5%
same,steatosis and lobular inflammation in the liver as indicated by the NAS,[2]; 3 mg/kg and 10 mg/kg,markedly reduced steatosis and lobular inflammation in the liver
same,weight put on relative to naïve controls at day 21,[2]; 3 mg/kg,+1.3%
same,liver to body weight ratio,[2]; 3 mg/kg,0.054
same,"decrease of percentage collagen proportion area (CPA), Masson's trichrome staining, liver",[2]; 3 mg/kg,29%
same,ORO (Oil-Red-O) steatosis score relative to disease control,[2]; 10 mg/kg,−52%
same,change of liver to body weight ratio compared with disease control,[2]; 10 mg/kg,−16.2%
same,reduction of plasma glucose relative to disease control,"[2]; 10 mg/kg, i.p., p<0.01",17.4%
same,weight put on relative to naïve controls at day 21,[2]; 10 mg/kg,−43%
same,liver to body weight ratio,[2]; 10 mg/kg,0.055
same,"decrease of percentage collagen proportion area (CPA), Masson's trichrome staining, liver",[2]; 10 mg/kg,20%
same,body weight increase compared with disease controls,"[2]; 3 and 10 mg/kg, 21 days of treatment",both less than disease controls
same,NAS (in words),"[2]; 3 and 10 mg/kg, p<0.05",significantly decreased the NAS
same,"change in body weight (g), Mean","[2]; Day 1, 3 mg/kg once daily",0.00 g
same,"change in body weight (g), Mean","[2]; Day 1, 10 mg/kg once daily",0.00 g
same,"change in body weight (g), Mean","[2]; Day 2, 3 mg/kg once daily",0.54 g
same,"change in body weight (g), Mean","[2]; Day 2, 10 mg/kg once daily",0.65 g
same,"change in body weight (g), Mean","[2]; Day 3, 3 mg/kg once daily",0.85 g
same,"change in body weight (g), Mean","[2]; Day 3, 10 mg/kg once daily",0.96 g
same,"change in body weight (g), Mean","[2]; Day 4, 3 mg/kg once daily",0.48 g
same,"change in body weight (g), Mean","[2]; Day 4, 10 mg/kg once daily",0.76 g
same,"change in body weight (g), Mean","[2]; Day 5, 3 mg/kg once daily",0.35 g
same,"change in body weight (g), Mean","[2]; Day 5, 10 mg/kg once daily",0.81 g
same,"change in body weight (g), Mean","[2]; Day 6, 3 mg/kg once daily",0.68 g
same,"change in body weight (g), Mean","[2]; Day 6, 10 mg/kg once daily",0.84 g
same,"change in body weight (g), Mean","[2]; Day 7, 3 mg/kg once daily",0.54 g
same,"change in body weight (g), Mean","[2]; Day 7, 10 mg/kg once daily",0.19 g
same,"change in body weight (g), Mean","[2]; Day 8, 3 mg/kg once daily",0.21 g
same,"change in body weight (g), Mean","[2]; Day 8, 10 mg/kg once daily",0.78 g
same,"change in body weight (g), Mean","[2]; Day 9, 3 mg/kg once daily",0.53 g
same,"change in body weight (g), Mean","[2]; Day 9, 10 mg/kg once daily",0.80 g
same,"change in body weight (g), Mean","[2]; Day 10, 3 mg/kg once daily",0.56 g
same,"change in body weight (g), Mean","[2]; Day 10, 10 mg/kg once daily",0.89 g
same,"change in body weight (g), Mean","[2]; Day 11, 3 mg/kg once daily",0.40 g
same,"change in body weight (g), Mean","[2]; Day 11, 10 mg/kg once daily",0.91 g
same,"change in body weight (g), Mean","[2]; Day 12, 3 mg/kg once daily",-0.49 g
same,"change in body weight (g), Mean","[2]; Day 12, 10 mg/kg once daily",-0.08 g
same,"change in body weight (g), Mean","[2]; Day 13, 3 mg/kg once daily",0.81 g
same,"change in body weight (g), Mean","[2]; Day 13, 10 mg/kg once daily",0.74 g
same,"change in body weight (g), Mean","[2]; Day 14, 3 mg/kg once daily",1.10 g
same,"change in body weight (g), Mean","[2]; Day 14, 10 mg/kg once daily",0.71 g
same,"change in body weight (g), Mean","[2]; Day 15, 3 mg/kg once daily",0.84 g
same,"change in body weight (g), Mean","[2]; Day 15, 10 mg/kg once daily",1.01 g
same,"change in body weight (g), Mean","[2]; Day 16, 3 mg/kg once daily",1.32 g
same,"change in body weight (g), Mean","[2]; Day 16, 10 mg/kg once daily",1.09 g
same,"change in body weight (g), Mean","[2]; Day 17, 3 mg/kg once daily",1.38 g
same,"change in body weight (g), Mean","[2]; Day 17, 10 mg/kg once daily",1.13 g
same,"change in body weight (g), Mean","[2]; Day 18, 3 mg/kg once daily",1.11 g
same,"change in body weight (g), Mean","[2]; Day 18, 10 mg/kg once daily",0.97 g
same,"change in body weight (g), Mean","[2]; Day 19, 3 mg/kg once daily",1.22 g
same,"change in body weight (g), Mean","[2]; Day 19, 10 mg/kg once daily",1.16 g
same,"change in body weight (g), Mean","[2]; Day 20, 3 mg/kg once daily",1.56 g
same,"change in body weight (g), Mean","[2]; Day 20, 10 mg/kg once daily",0.80 g
same,"change in body weight (g), Mean","[2]; Day 21, 3 mg/kg once daily",1.57 g
same,"change in body weight (g), Mean","[2]; Day 21, 10 mg/kg once daily",0.89 g
same,IC50,GSNOR enzyme,1000 to 5000 nM

# — patent publication US11655244B2, “Carbazole compounds and methods of use thereof” (GSNO Therapeutics, Inc, priority 2017, dated 2023)
